Data set [1] relates to Human immunodeficiency virus 1. Kind of data set: Antiviral activity against 100 TCID50 HIV1 infected in human TZM-b1 cells assessed as inhibition of viral replication by pseudovirus based assay. The format is functional, organism-based. The conditions noted are these: for pEC50: Human immunodeficiency virus 1, TZM-b1, read-out: EC50; for EC50: tzm-b1.
A short description of data set [2]: Toxicity in African green monkey Vero cells. The format is cell-based. The conditions noted are these: chlorocebus sabaeus.
Data set [3] in a line: Selectivity index, ratio of IC50 for African green monkey Vero cells to EC50 for HIV1. The conditions noted are these: read-out: Selectivity Index. Format: toxicity, cell-based.

This passage reports EC50, CC50 and selectivity ratio results from ChEMBL document CHEMBL1156814, “Highly suppressing wild-type HIV-1 and Y181C mutant HIV-1 strains by 10-chloromethyl-11-demethyl-12-oxo-calanolide A with druggable profile” (J Med Chem, 2010).

By pEC50 is commonly meant −log10 of the EC50, conventionally taken in molar units. What is called CC50 is the concentration that lowers cell viability or growth by half.

pEC50: −log10 of the molar value.

As to `CCCc1cc(=O)oc2c3c(c4c(c12)OC(C)(C)C=C4)OC(CBr)CC3=O` (configuration not stated), the pEC50 in data set [1] is 6.74.

With `CCCc1cc(=O)oc2c3c(c4c(c12)OC(C)(C)C=C4)OC(CNC(=O)Nc1ccc(F)cc1)CC3=O` (configuration not stated), the EC50 result in data set [1] is reported as “Not Active”. The same measure, in the same setting: in the case of `CCCc1cc(=O)oc2c3c(c4c(c12)OC(C)(C)C=C4)OC(CNC(=O)Nc1ccccc1OC)CC3=O` (configuration not stated) it was “Not Active”. `CCCc1cc(=O)oc2c3c(c4c(c12)OC(C)(C)C=C4)OC(CSC)CC3=O` (configuration not stated): the pEC50 in data set [1] is 6.34. On to `CCCc1cc(=O)oc2c3c(c4c(c12)OC(C)(C)C=C4)OC(CN1CCCC1)CC3=O` (configuration not stated), for which, in data set [1], the EC50 entry is reported as “Not Active”. For `CCCc1cc(=O)oc2c3c(c4c(c12)OC(C)(C)C=C4)OC(COC)CC3=O` (configuration not stated), the pEC50 in data set [1] was 6.74. Also, in data set [2], the CC50 was 9.89 µM. For the same molecule, the selectivity ratio in data set [3] was found to be 39.7. Consider `CCCc1cc(=O)oc2c3c(c4c(c12)OC(C)(C)C=C4)OC(C[S+](C)[O-])CC3=O` (configuration not stated), for which the negative-log EC50 (pEC50) in data set [1] is 4.84.

Consider `CCCc1cc(=O)oc2c3c(c4c(c12)OC(C)(C)C=C4)OC(CS(C)(=O)=O)CC3=O` (configuration not stated), for which, in data set [1], the pEC50 was 4.47. On to `CCCc1cc(=O)oc2c3c(c4c(c12)OC(C)(C)C=C4)OC(CNS(=O)(=O)c1ccc(NC(C)=O)cc1)CC3=O` (configuration not stated), for which, in data set [1], the EC50 entry is on record as “Not Active”. In the case of `CCCc1cc(=O)oc2c3c(c4c(c12)OC(C)(C)C=C4)OC(CNS(=O)(=O)c1ccc(F)cc1)CC3=O` (configuration not stated), the EC50 entry in data set [1] was “Not Active”.
